Measured values from article PMC3139667, “A Screen against Leishmania Intracellular Amastigotes: Comparison to a Promastigote Screen and Identification of a Host Cell-Specific Hit” (PLoS Neglected Tropical Diseases, 2011).
“Also recorded” adds a separate entry of the source.

Tests used:
THP-1 = experiment: Host cell toxicity: THP-1 host nuclei counts in the image-based assay; settings: for GI50: Homo sapiens, THP-1, 72 h, read-out: GI50 THP-1; for Selectivity: ratio between parasite GI50 and THP-1 GI50
Method: (§1) Sterile, black, 96-well, clear bottom plates (Greiner Bio-One) were seeded with exponentially growing THP-1 (5×10^5cells/ml). THP-1 were treated with 0.1 µM phorbol myristate acetate (PMA, Sigma) at 37°C for 48 h to achieve differentiation into adherent, non-dividing macrophages. Maturation of THP-1 cells towards monocyte-macrophage like cells is essential to avoid parasitized cells being overgrown by replicating cells. After activation by PMA, cells were washed and incubated with complete RPMI medium containing stationary phase L. donovani promastigotes at a macrophage/promastigote ratio of 1/15. After 4 h incubation at 37°C, non-internalized promastigotes were removed by 2–3 successive washes with RPMI containing 5% FBS and 5% horse serum. Test compounds (10 µM), positive control (2 µM amphotericin B) or negative control (1% DMSO) were then added to the cultures using a Biomek FXp liquid handler (Beckman Coulter). Cultures were incubated at 37°C for 72 h. Cells were then washed with phosphate-buffered saline (PBS), fixed for 30 minutes with 4% formaldehyde, rinsed again with PBS, stained for 2 h with 4′,6′-diamidino-2-phenylindole (DAPI 300 nM) and finally washed with PBS. […] Images were acquired with an INCell Analyzer 1000 automated epi-fluorescent microscope (G.E. Healthcare). The excitation and emission filters used to detect DAPI were 350/50 nm and 460/40 nm respectively. Eight image fields were acquired per well with a 20X objective. The proprietary INCell Developer Toolbox 1.7 software was used for image analysis. Segmentation parameters were set to identify host nuclei with a minimum area of 250 µm^2 and parasite kinetoplast with an average area of 1 µm^2. The intensity of parasite nucleus was too low to be detected with a 20X objective. A border, representing the boundary of the cell, was drawn around the nucleus (total area between 700 and 2000 µm^2). Only parasites found within this area were included in the calculation to eliminate extracellular parasites. False positive parasite detection in the nucleus was also excluded from the calculation. Host cell nuclei and parasite kinetoplasts were counted and the ratio of parasites DNA to host nuclei was selected as the measurement output. Percentage inhibition of parasite growth was calculated as [1-(P/hcx-P/hc^+)/(P/hc^−-P/hc^+)]*100 where P/hcx, P/hc^+ and P/hc^− are parasite per host cell ratio for every well, positive control (amphotericin B) and negative control (DMSO) respectively. Calculation of Z' factor and GI50 curve fitting were carried out as described above.

[1] = test system: L. donovani intracellular amastigotes; experiment: Intracellular amastigote high-throughput image-based assay in infected THP-1 macrophages; type: cell-based, Leishmania donovani; settings: for GI50: Leishmania donovani, THP-1, 72 h, L. donovani in THP-1, 72 h, parasites per host cell, read-out: GI50 Intracellular amastigote; for Specificity: ratio between promastigote GI50 and intracellular amastigote GI50, >2 more active against intracellular amastigote, <0.4 more active against promastigotes
Method: as §1

[2] = test system: L. donovani promastigotes; experiment: Promastigote high-throughput ATP-bioluminescence assay; type: cell-based, Leishmania donovani; settings: for GI50: Leishmania donovani, 72 h at 27°C, CellTiter-Glo, read-out: GI50 Promastigote
Method: L. donovani promastigotes from an exponentially growing culture were diluted to 10^6/ml in RPMI containing 10% FBS and 10% BHT. The diluted culture (99 µl/well) was dispensed in sterile 96-well flat white opaque assay plates (Greiner Bio-One) using a WellMate multichannel dispenser (Matrix). 1 µl of 1 mM test compound dissolved in DMSO was added to the plates for a final concentration of 10 µM compound and 1% DMSO. Amphotericin B was added as a positive control (final concentration 2 µM, 1% DMSO) and as a negative control, 1 µl DMSO was added (1% final concentration). Compounds and controls were added to the assay plate with the robotic dispenser Biomek FXp liquid handler (Beckman Coulter). Promastigotes were incubated with the compounds for 72 h at 27°C. The parasites were then lysed by adding 50 µl of CellTiter-Glo (Promega) and placed on an orbital shaker for 5 min at room temperature. After lysis, the resulting ATP-bioluminescence was measured using the Analyst HT plate reader (Molecular Devices). Percentage inhibition of parasite growth was calculated for each well as [1-(RLUx-RLU^+)/(RLU^--RLU^+)]*100 where RLUx, RLU^+ and RLU^- are respectively the Relative Light Units for each well, positive (amphotericin B) and negative (DMSO) controls. A screening window coefficient, denoted Z' factor, was used to evaluate the performance of the assay. The Z' factor, calculated as 1-(3σc++3σc−)/(µc+−µc−) where σc+, σc−, µc+ and µc− are respectively the standard deviation and mean values of positive and negative controls, is reflective of the assay signal dynamic range and the data variation associated with signal measurement. […] GI50 curve fitting was carried out using GraphPad Prism 4 Software (GraphPad Software Inc., San Diego, CA).

[3] = test system: L. donovani axenic amastigotes; experiment: Dose response study against axenic amastigotes (CellTiter-Glo); type: cell-based, Leishmania donovani; settings: for GI50: Leishmania donovani, 72 h at 37°C, CellTiter-Glo, read-out: GI50 Axenic amastigote
Method: L. donovani axenic amastigotes (5×10^5 cells/ml in axenic amastigote media) were dispensed in sterile 96-well flat white opaque assay plates (Greiner Bio-One) using a WellMate multichannel dispenser (Matrix). […] 1% DMSO and amphotericin B (2 µM, 1% DMSO final concentration) were added as negative and positive controls respectively. Axenic amastigotes were incubated with the compounds for 72 h at 37°C with 5% CO2. Parasite viability was then measured using CellTiter-Glo as described above.

## CN(C)C(=S)SSC(=S)N(C)C [Thiram]
THP-1
  GI50: 1.58 µM
  Selectivity: 0.34
[1]
  GI50: 10.4 µM
  Specificity: 0.44
[2]
  GI50: 4.62 µM
[3]
  GI50: 5.42 µM

## Cc1ccc2c(Cl)cc(Cl)c(O)c2n1 [chlorquinaldol]
THP-1
  GI50: 39.3 µM
  Selectivity: 7.14
[1]
  GI50: 5.5 µM
  Specificity: 1.14
[2]
  GI50: 6.3 µM
[3]
  GI50: 1.72 µM

## C=CCN1CC[C@]23c4c5ccc(O)c4O[C@H]2C(=O)CC[C@@]3(O)[C@H]1C5 [naloxone]
THP-1; dose response, up to 50 µM
  Toxicity to the host macrophage (in words): not toxic
[1]; 10 µM, duplicates, hit = 60% parasite growth inhibition and not more than 20% reduction in THP-1 numbers
  Primary screen against intracellular amastigotes, hit selection: not selected as a hit
[1]; dose response, up to 50 µM
  Activity against intracellular amastigotes (in words): inactive; also recorded: did not show any activity
[2]; 10 µM, hit = 60% parasite growth inhibition
  Primary screen against promastigotes, hit selection: not selected as a hit
[2]; dose response, up to 50 µM
  Activity against promastigotes (in words): inactive
[3]; dose response, up to 50 µM
  Activity against axenic amastigotes (in words): inactive
